Laboratory results as given in US20100184771A1, “Bicyclic Heterocyclic Compound” (ONO PHARMACEUTICAL CO., LTD., priority 2005, published 2010).

Tests used:
[1] = biological target: T1, human CRF receptor I (Homo sapiens, UniProt P34998); test: Receptor antagonistic activity (cyclic AMP assay); format: cell-based; conditions: human/rat CRF stimulation, 37° C., 15 minutes; read-out: IC50 value, antagonistic activity against CRF (accumulated cyclic AMP)
T1 construct: expressed in transfected cells; host or cells: CHO-K1
T1 sequence (P34998 24-415): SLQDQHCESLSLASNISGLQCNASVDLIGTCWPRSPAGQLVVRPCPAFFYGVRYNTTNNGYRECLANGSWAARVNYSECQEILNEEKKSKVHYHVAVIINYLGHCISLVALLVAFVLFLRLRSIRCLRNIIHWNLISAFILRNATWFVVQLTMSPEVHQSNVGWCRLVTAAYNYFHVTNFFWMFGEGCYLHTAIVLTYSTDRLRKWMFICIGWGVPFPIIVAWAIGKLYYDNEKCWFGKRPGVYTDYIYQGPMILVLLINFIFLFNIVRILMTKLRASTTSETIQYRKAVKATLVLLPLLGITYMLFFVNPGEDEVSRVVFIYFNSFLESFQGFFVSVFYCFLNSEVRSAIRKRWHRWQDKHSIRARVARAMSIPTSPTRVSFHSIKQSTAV
Protocol: The forced expression cell strain of the human CRF receptor I was cultured at 37° C. under 5% carbon dioxide and 95% air by using a Ham's F-12 medium (F-12 nutrient mixture) containing 10% bovine fetal serum and 1% antibiotic substance-antifungal agent. On the previous day before the cyclic AMP was measured, the cells were inoculated into a 96-well plate in an amount of 1×10^4 cell/well. On the measurement day, the cells were washed twice with a Ham's F-12 medium, whereby a solution of Ham's F-12 medium/1 mM 3-isobutyl-1-methylxanthine (assay medium) (178 μL) was added to each well. After the incubation at 37° C. for 10 minutes, test drug solutions (2 μL) in various concentrations were added thereto, or DMSO (2 μL) was added to a CRF group and a blank group. An assay medium (20 μL) containing 10 nM human/rat CRF was added to wells of a compound group and the CRF group. An assay medium (20 μL) containing 0.00001% acetic acid was added to the blank group. Each group was further incubated at 37° C. for 15 minutes. […] The accumulated cyclic AMP amounts were calculated by subtracting mean values of corresponding 2 wells in the blank group from that of 2 wells. The IC50 values were calculated with non-linear regression analysis by defining logarithm concentration of the compound as independent variable and an accumulated cyclic AMP amount as dependent variable.

[2] = tested on: swim-stressed SD rat; test: Elevated plus maze test with swim-stressed rat; format: in vivo; conditions: orally, 1 hour before the test
Protocol: 2 open arms with the same lengths (50×10 cm) and 2 close arms (a 30 cm wall was provided) with the same lengths (50×10 cm) were arranged in orthogonal manner at a height of 50 cm from the floor to provide an elevated crossroad maze system. In 70 cm above the both open arms, white light was provided, whereby illuminance was maintained at constant.
A 7-week-old SD rat (CHARLES RIVER LABORATORIES JAPAN) was forcedly made to swim for 120 seconds in a pool (40×30×38 cm) at 22° C. of water temperature and 25 cm of water depth. After 9 minutes of soaking stress loading, the rat was put on the center of the system. The activity for 5 minutes of the rat was analyzed with an automatic activity-tracking analysis system (EthoVision Version 3.0, Noldus Information Technology) to calculate the dwell time (second) on the open arm.
Note that no soaking stress was loaded on the control group. In addition, 20% Solutol/HS15 (5 mL/Kg) was orally administered to the vehicle group and test drugs in various concentrations were orally administrated to the test drug administration group 1 hour before the test.

[3] = biological target: T1, human CRF receptor I; test: Binding assay (125I-CRF, membrane fraction of CHO-K1 cells with forced expression of the receptor); conditions: 125I-CRF 0.25 nM, room temperature, 2 hours
Protocol: The forced-expression cell strain of the human CRF receptor I (parent strain is CHO-K1 cell) was cultured until the cell was confluent and collected with a scraper. The collected cells were washed twice with PBS, and were suspended with an ice-colded binding assay buffer (Tris-HCl (50 mM, pH 7.0), EDTA (2 mM, pH 8.0), and MgCl2 (10 mM)). After fractured with a dounce-type homogenizer, the suspended cells were centrifuged at 10,000 g, and a membrane fraction was collected. The collected membrane fraction was resuspended with a little amount of the binding assay buffer, thereafter diluted with the binding assay buffer so as to have a concentration of 1 mg/mL. The obtained membrane fraction was used for a binding assay.
^125I-CRF was diluted with the binding assay buffer so as to have a concentration of 0.5 nM, whereby 50 μL of the diluted ^125I-CRF was added to a siliconized 1.5-mL tube. Next, test drugs diluted at appropriate times, such as DMSO (for general binding) or 100 μM of CRF (for non-specific binding), was added to a […]. Finally, 50 μL of the membrane fraction was added thereto and the reaction was started (final concentration of ^125I-CRF was 0.25 nM). The tube was incubated at room temperature for 2 hours. […] A membrane binding count was measured using a γ counter. The specific binding count was obtained by subtracting the non-specific count from the measured count.

IC50 [1]: 4.9 nM
IC50 [3]: 16.4 nM
Compound: CCC(CC)c1cc(C)n2nc(-c3ccc(OC)cc3C)c(C)cc12 [Example 8, 5-(1-ethylpropyl)-2-(4-methoxy-2-methylphenyl)-3,7-dimethylpyrrolo[1,2-b]pyridazine]
dwell time on the open arm compared to that of the vehicle group ([2]; 10 mg/kg): favorably elongated the dwell time on the open arm
dwell time on the open arm compared to that of the vehicle group [2]: favorably elongated the dwell time on the open arm
